Structures are written as SMILES.

For one test, the target named is T1, AhR (Homo sapiens, UniProt P35869).
T1 sequence (P35869 11-848): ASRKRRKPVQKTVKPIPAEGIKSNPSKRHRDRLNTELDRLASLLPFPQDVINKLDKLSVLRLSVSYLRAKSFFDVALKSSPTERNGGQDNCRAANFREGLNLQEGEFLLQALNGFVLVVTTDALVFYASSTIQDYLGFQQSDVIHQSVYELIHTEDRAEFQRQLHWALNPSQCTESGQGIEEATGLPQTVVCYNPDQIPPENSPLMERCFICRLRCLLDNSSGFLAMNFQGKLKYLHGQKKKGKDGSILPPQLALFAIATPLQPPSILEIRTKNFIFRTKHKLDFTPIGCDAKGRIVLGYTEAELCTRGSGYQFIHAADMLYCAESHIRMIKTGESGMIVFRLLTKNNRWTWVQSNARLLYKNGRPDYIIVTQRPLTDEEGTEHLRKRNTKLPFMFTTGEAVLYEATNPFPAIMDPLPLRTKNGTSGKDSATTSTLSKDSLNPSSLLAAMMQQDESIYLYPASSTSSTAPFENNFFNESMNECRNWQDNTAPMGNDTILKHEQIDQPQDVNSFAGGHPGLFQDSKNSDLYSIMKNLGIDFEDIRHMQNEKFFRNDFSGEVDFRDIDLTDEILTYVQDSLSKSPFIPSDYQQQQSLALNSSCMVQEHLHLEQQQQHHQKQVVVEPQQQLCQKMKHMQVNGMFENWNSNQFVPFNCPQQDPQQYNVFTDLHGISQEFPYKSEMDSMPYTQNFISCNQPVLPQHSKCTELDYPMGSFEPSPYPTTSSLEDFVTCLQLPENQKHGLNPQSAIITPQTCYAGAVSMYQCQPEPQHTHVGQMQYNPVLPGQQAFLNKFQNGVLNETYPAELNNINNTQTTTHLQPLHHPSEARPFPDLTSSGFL
Put plainly: Cell-based AhR reporter assays. To be noted: extent comparable to other endogenous Trp-derived ligands (e.g., kynurenine). (In general: A reporter such as luciferase makes a cellular process visible.)

The test system of test [1] is palmitate and LPS stimulated macrophages. Put plainly: Cytokine production in palmitate and LPS stimulated macrophages. Format: cell-based.
The subject of test [2] is endotoxin-treated murine bone marrow derived macrophages. Put plainly: Cytokine expression in endotoxin-treated bone marrow derived macrophages. Format: cell-based.
Test [3] concerns TNFα and IL-1β expression in RAW 264.7 macrophages. Put plainly: TNFα and IL-1β expression (qRT-PCR) in RAW 264.7 macrophages, palmitate and LPS two-hit model. Format: cell-based, murine. For orientation: In qPCR the cycle at which signal appears reflects the starting amount.
The subject of test [4] is colitis and fungal infection. The following applies: administration of indole-3-aldehyde; cited from earlier work.
Another test deals with NSAID enteropathy. To be noted: indole administration; cited from earlier work.
Where [5] appears, read: RAW 264.7, 1 mM AICAR 4 h, 300 μM palmitate 18 h, 10 ng/ml LPS 6 h.

For the compound `NCCc1c[nH]c2ccccc12` [TA, tryptamine], the AhR activation entry on AhR was “dose-dependently activate the AhR”. Also, the “production of TNF-α, IL-1β, and MCP-1” value in test [1] is “dose-dependently attenuated the production of TNF-α, IL-1β, and MCP-1”. In test [2], the “expression of IL-1, TNF-α, and MCP-1” value is “dose-dependently downregulate the expression of IL-1, TNF-α, and MCP-1”. For `Cc1ccccc1N=Nc1ccc(NC(=O)c2ccnn2C)c(C)c1` [CH223191], the “effect of AhR inhibitor on I3A's reduction of palmitate and LPS induced TNFα and IL-β expression” value in test [3] (RAW 264.7, CH223191 5 μM added 10 min before 1 mM I3A) is reported as “did not alter I3A's effect”.

As to `O=Cc1c[nH]c2ccccc12` [indole-3-aldehyde], in test [4], the “IL-22 production from natural killer (NK) cells” value is reported as “induced IL-22 production from natural killer (NK) cells” and the mucosal inflammation entry was “protected against mucosal inflammation”. For the compound `c1ccc2[nH]ccc2c1` [indole], in the test with NSAID enteropathy, the “mucosal inflammation and injury” value is “decreased mucosal inflammation and injury”. As to `NC(=O)c1ncn([C@@H]2O[C@H](COP(=O)(O)O)[C@@H](O)[C@H]2O)c1N` [AICAR, 5-aminoimidazole-4-carboxamide ribonucleotide], in test [3] (setting [5]), the “attenuation of palmitate and LPS stimulated increase in IL-1β expression” value is on record as 80%; the “attenuation of palmitate and LPS stimulated increase in TNFα expression” value was found to be 30%.

The record behind these values is US20240189279A1, “IMMUNOMODULATORY COMPOSITIONS AND METHODS OF USE THEREOF” (THE TEXAS A&M UNIVERSITY SYSTEM, priority 2022, published 2024).
